Measurements from US20240382544A1, “COMPOSITION FOR ANTI-OBESITY AND PREVENTING OR TREATING MUSCLE LOSS, CONTAINING CATECHIN GLYCOSIDE EXTRACT DERIVED FROM PLANT IN GENUS ULMUS AS ACTIVE INGREDIENT” (DR. OREGONIN INC., priority 2022, published 2024).
Entries after “also recorded” stand apart in the source; their conditions may differ.

System: 3T3-L1 cells
Assay: Adipocyte differentiation (fat accumulation), Oil Red O staining
Format: cell-based, mouse
Protocol: 3T3-L1 cells, which are mouse-derived preadipocytes, were purchased from Korean Cell Line Bank. The 3T3-L1 cells were cultured using an DMEM medium (Welgene) supplemented with 10% bovine calf serum (BCF), 100 units/mL penicillin and 100 μg/mL streptomycin (complete DMEM medium) in a humidified CO2 incubator (5% CO2/95% air) at 37° C. When the cells filled about 80% of the culture dish, the cell monolayer was washed with phosphate-buffered saline (PBS, pH 7.4) and the cells were detached by adding trypsin-2.65 mM EDTA. Then, the cells were subcultured while replacing the medium every other day.
3T3-L1 cells were seeded onto a 24-well plate at 1×10^5 cells/well. When the cells reached confluence, differentiation into adipocytes was induced by culturing the cells while replacing the medium sequentially with three differentiation media (DM). That is to say, differentiation was induced for 2 days by replacing the medium with a differentiation medium wherein DMI (1 μM dexamethasone, 0.5 mM 3-isobutyl-1-methylxanthine (IBMX) and 5 μg/mL insulin) was added to a DMEM medium containing 10% FBS. Then, differentiation was induced again for 2 days by replacing the medium with a fresh differentiation medium wherein 5 μg/mL insulin was added to a DMEM medium containing 10% FBS. Then, differentiation into adipocytes was induced by maintaining the cells for 2 days in a DMEM medium containing 10% FBS. […]

## OCC1(O)CO[C@@H](Oc2cc(O)c3c(c2)OC(c2ccc(O)c(O)c2)[C@@H](O)C3)C1O (stereo partly drawn) [catechin 7-O-β-D-apiofuranoside]
3T3-L1, concentration dependence
  adipocyte differentiation-inhibiting ability (in words): statistically significant adipocyte differentiation-inhibiting ability in a concentration-dependent manner; also recorded: inhibits the differentiation of adipocytes in a concentration-dependent manner with statistical significance
Mus musculus, 20 μg/mL (highest concentration tested), 3T3-L1, Oil Red O, read-out: adipocyte differentiation-inhibiting ability
  inhibition at 20 µg/mL: ≥ 40%
